Measured values taken from ChEMBL document CHEMBL5729236, “CIS-morpholinone and other compounds as MDM2 inhibitors for the treatment of cancer” (2022).

target: E3 ubiquitin-protein ligase Mdm2 (Homo sapiens, UniProt Q00987); assay: HTRF2 Assay: As the potencies of the HDM2 inhibitors increased, an improved HTRF assay (HTRF2 assay) was developed. All assay conditions remained the same as described above, with the exception of the following changes in reagent concentrations: 0.2 nM GST-hMDM2 (1-188), 0.5 nM biotinylated-p53 (1-83), 0.18 nM SA-XLent, and 100 mM KF.
Sequence (Q00987 whole entry): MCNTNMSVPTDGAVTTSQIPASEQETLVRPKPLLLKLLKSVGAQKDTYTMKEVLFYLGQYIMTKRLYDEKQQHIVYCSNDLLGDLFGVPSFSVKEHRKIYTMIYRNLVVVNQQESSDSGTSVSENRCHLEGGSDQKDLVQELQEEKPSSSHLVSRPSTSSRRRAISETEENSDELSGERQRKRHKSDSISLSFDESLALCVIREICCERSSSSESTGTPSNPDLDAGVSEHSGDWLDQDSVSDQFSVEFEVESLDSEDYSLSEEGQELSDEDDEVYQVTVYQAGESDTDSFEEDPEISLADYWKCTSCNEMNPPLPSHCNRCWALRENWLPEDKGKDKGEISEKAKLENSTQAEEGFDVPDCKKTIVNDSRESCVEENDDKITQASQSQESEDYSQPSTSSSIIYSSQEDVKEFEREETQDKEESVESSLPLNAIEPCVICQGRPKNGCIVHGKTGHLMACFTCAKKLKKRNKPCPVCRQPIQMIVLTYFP

First: CCC[C@H](C(=O)O)N1C(=O)CO[C@@H](c2ccc(Cl)cc2)[C@H]1c1cc2ccccc2[nH]1 (mixture of isomers)
Second: CCC[C@H](C(=O)N1CC(C(=O)O)C1)N1C(=O)[C@H](Cc2ccc(F)cc2)O[C@@H](c2ccc(Cl)cc2)[C@H]1c1ccc(Cl)cc1 (mixture of isomers)
The IC50 of the first is 2.5-fold higher: 1.29 µM for the first, 0.524 µM for the second. The second is the more potent here.

O=C1[C@H](CCCO)O[C@@H](c2cccc(Cl)c2)[C@@H](c2ccc(Cl)cc2)N1CC1CC1 (mixture of isomers) was tested, and the IC50 was 7.23 µM.
